Data as given in paper PMC11228755 (RSC Advances, 2024).
Several values for one entry are separate records, joined by “and”; a condition that tells them apart may be missing. Equal entries are not always repeated. Marks after values point to notes of the source that are not given here.

Assays:
[1] = tested on: Salmonella typhimurium TA98; assay: Ames test; details: positive control, 50 μg per plate, −S9
[2] = tested on: Salmonella typhimurium TA97a; assay: Ames test; details: positive control, 50 μg per plate, −S9
[3] = tested on: Salmonella typhimurium TA100; assay: Ames test; details: positive control, 1 μg per plate, −S9
[4] = tested on: Salmonella typhimurium TA1535; assay: Ames test; details: positive control, 1 μg per plate, −S9
[5] = tested on: Salmonella typhimurium TA102; details: positive control, 20 μg per plate, +S9

CN(C)c1ccc(N=NS(=O)(=O)[O-])cc1.[Na+] [Dioxone, dioxone]
Number of revertants TA98 [1]: 1111 ± 117 ^a
Number of revertants TA97a [2]: 1872 ± 104 ^a

[N-]=[N+]=[N-].[Na+] [Sodium azide, sodium azide]
Number of revertants TA100 [3]: 1697 ± 54 ^c
Number of revertants TA1535 [4]: 1190 ± 40 ^c and 1333 ± 53 ^c

Nc1ccc2cc3ccccc3cc2c1 [2-Aminoanthracene, 2-aminoanthracene]
Number of revertants TA102 [5]: 2121 ± 21 ^e
